{"source": "patent US20120219952A1", "about": "“CARBAPENEMASE AND ANTIBACTERIAL TREATMENT” (priority 2009, published 2012)", "molecules": {"B1": {"name": "DIM-1: Ambler class B carbapenemase (Dutch IMipenemase) from P. stutzeri 13, SEQ ID NO:1 (protein, listed as Pseudomonas stutzeri)", "chain": "MRTHFTALLLLFSLSSLANDEVPELRIEKVKENIFLHTSYSRVNGFGLVSSNGLVVIDKGNAFIVDTPWSDRDTETLVHWIRKNGYELLGSVSTHWHEDRTAGIKWLNDQSISTYATTSTNHLLKENKKEPAKYTLKGNESTLVDGLIEVFYPGGGHTIDNVVVWLPKSKILFGGCFVRSLDSEGLGYTGEAHIDQWSRSAQNALSRYSEAQIVIPGHGKIGDIALLKHTKSLAETASNKSIQPNANASAD"}}, "key": {"[1]": {"tested_on": "P. stutzeri clinical isolate 13", "assay": "Routine antibiogram by disk diffusion assay", "type": "cell-based, Pseudomonas stutzeri", "conditions": "clinical isolate P. stutzeri 13 expressing DIM-1", "description": "Bacterial strains. P. stutzeri clinical isolate 13 was identified with the API-20 NE system (BioMérieux, Marcy l'Etoile, France), and confirmed by rRNA sequencing. Escherichia coli TOP10 (In Vitrogen, Carlsbad, Calif.)was the host for cloning experiments (Poirel et al., 2001)\n(§1) Susceptibility testing. Antibiotic-containing disks were used for routine antibiograms by the disk diffusion assay (Sanofi-Diagnostic Pasteur, Marnes-la-Coquette, France). The ESBL double-disk synergy test was performed with disks containing ceftazidime or cefepime and ticarcillin-clavulanic acid on Mueller-Hinton agar plates, and the results were interpreted as described previously (Poirel, Le Thomas et al., 2000). The carbapenemase detection was performed by using Etest carbapenem-containing strips (AB Biodisk, Solna, Sweden)."}, "carbapenemase DIM-1": {"target": "carbapenemase DIM-1 (Stutzerimonas stutzeri, UniProt D5JGF6)", "assay": "Kinetic measurements with purified carbapenemase (hydrolysis of β-lactams)", "type": "biochemical, P. stutzeri", "conditions": "purified DIM-1, 30° C., 100 mM sodium phosphate pH 7.0", "source_text": "(§2) Carbapenemase purification and isoelectric focusing (IEF) analysis. […] Carbapenemase was purified by ion-exchange chromatography."}, "P. stutzeri 13 [2]": {"tested_on": "P. stutzeri 13", "assay": "MICs by agar dilution technique", "type": "cell-based, Pseudomonas stutzeri", "conditions": "for β-lactam susceptibility from MICs: agar dilution, 37° C., 18 h; for restoration of susceptibility to penicillins on addition of inhibitor: clavulanic acid 2 μg/ml, tazobactam 4 μg/ml", "description": "(§3) MICs were determined by an agar dilution technique with Mueller-Hinton agar (Sanofi-Diagnostic Pasteur) with an inoculum of 10^4 CFU/ml, as described previously (Poirel, Le Thomas et al., 2000). All plates were incubated at 37° C. for 18 h at ambient atmosphere. MICs of β-lactams were determined alone or in combination with a fixed concentration of clavulanic acid (2 μg/ml), tazobactam (4 μg/ml), and sulbactam (4 μg/ml). MIC results were interpreted according to the guidelines of the National Committee for Clinical Laboratory Standards (NCCLS) (CLSI)."}, "E. coli DH10B(pXD-1)": {"tested_on": "E. coli DH10B(pXD-1)", "assay": "MICs by agar dilution technique", "type": "cell-based, Escherichia coli", "conditions": "for β-lactam susceptibility from MICs: agar dilution, 37° C., 18 h; for restoration of susceptibility to penicillins on addition of inhibitor: clavulanic acid 2 μg/ml, tazobactam 4 μg/ml", "description": "as §3"}, "P. stutzeri 13 [3]": {"tested_on": "P. stutzeri 13", "assay": "Carbapenemase detection with Etest carbapenem-containing strips", "type": "cell-based, Pseudomonas stutzeri", "conditions": "imipenem alone vs with EDTA", "description": "as §1"}, "[4]": {"tested_on": "CC(C)(O/N=C(\\C(=O)N[C@@H]1C(=O)N2C(C(=O)[O-])=C(C[n+]3ccccc3)CS[C@H]12)c1csc(N)n1)C(=O)O", "assay": "Kinetic measurements with purified carbapenemase (hydrolysis of β-lactams)", "type": "biochemical, P. stutzeri", "conditions": "other: purified DIM-1, 30° C., 100 mM sodium phosphate pH 7.0", "source_text": "as §2"}, "[5]": {"assay": "Specific activity of purified carbapenemase (imipenem hydrolysis)", "type": "biochemical", "conditions": "purified enzyme; 1 U = 1 μmol of imipenem hydrolyzed per min per mg of protein", "description": "The specific activity of the purified carbapenemase from E. coli DH10B(pXD-1) was obtained as described previously (Poirel et al., 1999). One unit of enzyme activity was defined as the activity which hydrolyzed 1 μmol of imipenem per min per mg of protein. The total protein content was measured with the DC Protein assay kit (Bio-Rad, Ivry-sur-Seine, France)."}}}
{"molecule": "NCC[C@H](O)C(=O)N[C@@H]1C[C@H](N)[C@@H](O[C@H]2O[C@H](CN)[C@@H](O)[C@H](O)[C@H]2O)[C@H](O)[C@H]1O[C@H]1O[C@H](CO)[C@@H](O)[C@H](N)[C@H]1O", "note": "[amikacin]", "values": [{"measurement": "susceptibility of P. stutzeri 13", "setting": "[1]", "value": "susceptible"}]}
{"molecule": "C[C@H]1[C@H](NC(=O)/C(=N\\OC(C)(C)C(=O)O)c2csc(N)n2)C(=O)N1S(=O)(=O)O", "note": "[aztreonam]", "values": [{"measurement": "susceptibility of P. stutzeri 13", "setting": "[1]", "value": "fully susceptible"}, {"measurement": "hydrolysis by DIM-1 (relative hydrolysis rates, substrate profile)", "setting": "carbapenemase DIM-1", "value": "excluding"}, {"measurement": "β-lactam susceptibility from MICs", "setting": "P. stutzeri 13 [2]", "value": "spared"}, {"measurement": "β-lactam susceptibility from MICs", "setting": "E. coli DH10B(pXD-1)", "value": "spared"}]}
{"molecule": "CO/N=C(\\C(=O)N[C@@H]1C(=O)N2C(C(=O)[O-])=C(C[N+]3(C)CCCC3)CS[C@H]12)c1csc(N)n1", "note": "[cefepime]", "values": [{"measurement": "susceptibility of P. stutzeri 13", "setting": "[1]", "value": "reduced susceptibility"}]}
{"molecule": "CO/N=C(\\C(=O)N[C@@H]1C(=O)N2C(C(=O)O)=C(COC(C)=O)CS[C@H]12)c1csc(N)n1", "note": "[cefotaxime]", "values": [{"measurement": "hydrolysis by DIM-1 (relative hydrolysis rates, substrate profile)", "setting": "carbapenemase DIM-1", "value": "hydrolyzed at a similar level as benzylpenicillin"}]}
{"molecule": "CO[C@@]1(NC(=O)Cc2cccs2)C(=O)N2C(C(=O)O)=C(COC(N)=O)CS[C@@H]21", "note": "[cefoxitin]", "values": [{"measurement": "hydrolysis by DIM-1 (relative hydrolysis rates, substrate profile)", "setting": "carbapenemase DIM-1", "value": "good substrate"}]}
{"molecule": "CO/N=C(\\C(=O)N[C@@H]1C(=O)N2C(C(=O)[O-])=C(C[n+]3cccc4c3CCC4)CS[C@H]12)c1csc(N)n1", "note": "[cefpirome]", "values": [{"measurement": "susceptibility of P. stutzeri 13", "setting": "[1]", "value": "reduced susceptibility"}]}
{"molecule": "CC(C)(O/N=C(\\C(=O)N[C@@H]1C(=O)N2C(C(=O)[O-])=C(C[n+]3ccccc3)CS[C@H]12)c1csc(N)n1)C(=O)O", "note": "[ceftazidime]", "values": [{"measurement": "susceptibility of P. stutzeri 13", "setting": "[1]", "value": "reduced susceptibility"}, {"measurement": "hydrolysis by DIM-1 (relative hydrolysis rates, substrate profile)", "setting": "carbapenemase DIM-1", "value": "well hydrolyzed"}]}
{"molecule": "O=C(N[C@H](CO)[C@H](O)c1ccc([N+](=O)[O-])cc1)C(Cl)Cl", "note": "[chloramphenicol]", "values": [{"measurement": "susceptibility of P. stutzeri 13", "setting": "[1]", "value": "resistant"}]}
{"molecule": "O=C(O)[C@H]1/C(=C/CO)O[C@@H]2CC(=O)N21", "note": "[clavulanic acid]", "values": [{"measurement": "restoration of susceptibility to penicillins on addition of inhibitor", "setting": "P. stutzeri 13 [2]", "value": "did not restore any susceptibility to penicillins"}, {"measurement": "restoration of susceptibility to penicillins on addition of inhibitor", "setting": "E. coli DH10B(pXD-1)", "value": "did not restore any susceptibility to penicillins"}]}
{"molecule": "C[C@@H](O)[C@H]1C(=O)N2C(C(=O)O)=C(SCCN=CN)C[C@H]12", "note": "[imipenem]", "values": [{"measurement": "MIC (carbapenem-containing E-test)", "setting": "P. stutzeri 13 [3]", "value": 64, "unit": "µg/mL"}]}
{"molecule": "C[C@@H](O)[C@H]1C(=O)N2C(C(=O)O)=C(S[C@@H]3CN[C@H](C(=O)N(C)C)C3)[C@H](C)[C@H]12", "note": "[meropenem]", "values": [{"measurement": "β-lactam susceptibility from MICs", "setting": "P. stutzeri 13 [2]", "value": "reduced susceptibility"}, {"measurement": "β-lactam susceptibility from MICs", "setting": "E. coli DH10B(pXD-1)", "value": "reduced susceptibility"}]}
{"molecule": "CCN[C@@H]1C[C@H](N)[C@@H](O[C@H]2OC(CN)=CC[C@H]2N)[C@H](O)[C@H]1O[C@H]1OC[C@](C)(O)[C@H](NC)[C@H]1O", "note": "[netilmicin]", "values": [{"measurement": "susceptibility of P. stutzeri 13", "setting": "[1]", "value": "susceptible"}]}
{"molecule": "CCN1CCN(C(=O)N[C@@H](C(=O)N[C@@H]2C(=O)N3[C@@H]2SC(C)(C)[C@@H]3C(=O)O)c2ccccc2)C(=O)C1=O", "note": "[piperacillin]", "values": [{"measurement": "susceptibility of P. stutzeri 13", "setting": "[1]", "value": "resistant"}]}
{"molecule": "C[C@]1(Cn2ccnn2)[C@H](C(=O)O)N2C(=O)C[C@H]2S1(=O)=O", "note": "[tazobactam]", "values": [{"measurement": "restoration of susceptibility to penicillins on addition of inhibitor", "setting": "P. stutzeri 13 [2]", "value": "did not restore any susceptibility to penicillins"}, {"measurement": "restoration of susceptibility to penicillins on addition of inhibitor", "setting": "E. coli DH10B(pXD-1)", "value": "did not restore any susceptibility to penicillins"}]}
{"molecule": "CC1(C)S[C@@H]2[C@H](NC(=O)[C@H](C(=O)O)c3ccsc3)C(=O)N2[C@H]1C(=O)O", "note": "[ticarcillin]", "values": [{"measurement": "susceptibility of P. stutzeri 13", "setting": "[1]", "value": "resistant"}]}
{"molecule": "NC[C@H]1O[C@H](O[C@H]2[C@H](O)[C@@H](O[C@H]3O[C@H](CO)[C@@H](O)[C@H](N)[C@H]3O)[C@H](N)C[C@@H]2N)[C@H](N)C[C@@H]1O", "note": "[tobramycin]", "values": [{"measurement": "susceptibility of P. stutzeri 13", "setting": "[1]", "value": "resistant"}]}
{"molecule": "carbapenemase DIM-1 (Stutzerimonas stutzeri)", "values": [{"measurement": "Km", "setting": "[4]", "value": 50, "unit": "µM"}]}
{"molecule": "colistin", "values": [{"measurement": "susceptibility of P. stutzeri 13", "setting": "[1]", "value": "susceptible"}]}
{"molecule": "gentamicin", "values": [{"measurement": "susceptibility of P. stutzeri 13", "setting": "[1]", "value": "resistant"}]}
{"molecule": "piperacillin-tazobactam", "values": [{"measurement": "susceptibility of P. stutzeri 13", "setting": "[1]", "value": "resistant"}]}
{"molecule": "B1", "values": [{"measurement": "specific activity", "setting": "[5]", "value": "21 U.mg of protein^−1"}]}
